We go through two compounds from US20190254997A1, “METHODS FOR INDUCING STEREOCILIA ON HAIR CELLS” (The Regents of the University of California, priority 2016, published 2019).

The subject of series [1] is myosin7A-positive cells (HCs) in utricular explants. The experiment in a line: Effect of Notch inhibition (DAPT) on GM-damaged utricular explants, myosin7A immunoreactivity. The class given is cell-based, CD-1 mice. The conditions noted are these: for number of myosin7A-positive cells: with or without 20 μM DAPT for 2 days then 5 days without, mean ± SD. The method, then:
Effect of notch inhibition. To induce HC-like cells, two days after GM damage, we cultured utricular explants with 20 μM DAPT (N-[N-[(3,5-Difluoropheny)acetyl]-L-alanyl]L-phenylglycinetert-butyl: C23H26F2N2O4, Abcam) for 2 days, followed by 5 days without DAPT. DAPT is a prototypical y-secretase inhibitor. Since Notch signaling requires γ-secretase activity, DAPT is a potent inhibitor of this signaling pathway. As a control, we cultured GM-damaged utricles for 7 days without DAPT. Explants were analyzed for myosin7A immunoreactivity both as whole mounts and as tissue sections
Histochemical analysis. At the end of the culture period, explants were fixed for 15 min in 4% paraformaldehyde and permeabilized with 5% Triton X-100 in phosphate-buffered saline (PBS) after 3×PBS wash. Explants were then exposed to a blocking solution containing 10% bovine serum albumin (BSA), and then incubated with anti-myosin7A rabbit polyclonal antibodies (25-6790; Proteus Bioscience Inc., Ramona, Calif., USA; 1:500). Alexa-Fluor 568 goat anti-rabbit IgG (A-11011, Invitrogen, Calif., USA; 1:100) was used as the secondary antibody. At the same time, specimens were incubated in FITC-conjugated or Alexa-Fluor 633 phalloidin (1:100; Invitrogen) to label F-actin for 1 hr. Finally, the explants were incubated with DAPI for 15 min. Specimens were examined using a Leica TCS-SP2 laser-scanning confocal microscope (Leica Microsystems Inc., Wetzlar, Germany). Cells with phalloidin-positive surface structures were counted in randomly selected areas and averaged in each sample for each condition, using an evaluation reticule 100 μm on each side. Results from 6-7 samples were evaluated, based on initial observations of variability.

The test system of series [2] is HC stereociliary bundles and HC bodies of utricular maculae. Briefly: Gentamicin damage to HC stereociliary bundles and HC bodies in utricular macula explants. The conditions noted are these: 1mM GM for 48 hrs, utricular maculae in vitro, followed to 10 days. The series is classed as cell-based, CD-1 mice. From the text:
Dissection of vestibular maculae and tissue culture. Postnatal mice were decapitated under deep anesthesia and their temporal bones were removed. Utricula maculae were dissected from the surrounding tissue in 0.01M phosphate-buffered saline, pH 7.4. The otoconial membranes were gently removed with a fine needle. Explants of utricular sensory epithelia were placed intact on type I collagen-coated cover glasses (Iwaki, Tokyo, Japan) and maintained in 24-well culture plates (Iwaki) in Dulbecco's modified Eagle's medium (Invitrogen, Eugene, Oreg., USA), supplemented with 6 g/l glucose (Wako Pure Chemicals, Osaka, Japan) and 1.5 g/l penicillin G (Wako Pure Chemicals), at 37° C. in a humidified atmosphere of 95% air and 5% CO2 for 24 hrs.
In order to examine the toxicity of gentamicin (GM) to HC stereociliary bundles and HC bodies, we damaged explants with 1mM GM (Nakarai, Japan) for 48 hrs and then maintained the explants in culture without GM for 10 days. After fixation with 4% paraformaldehyde and histochemistry (see below), we counted stereociliary bundles and HC bodies. Bundles and HC bodies were measured using a 10×40 eyepiece reticule. Each square of the reticule was 100 μm on a side. Surviving hair bundles and HC bodies were counted in each of three randomly selected fields including both striolar and extrastriolar regions, and the values obtained were averaged. […]

As for `C[C@H](NC(=O)Cc1cc(F)cc(F)c1)C(=O)N[C@H](C(=O)OC(C)(C)C)c1ccccc1` [DAPT, N-[N-[(3,5-Difluoropheny)acetyl]-L-alanyl]L-phenylglycinetert-butyl], the “stereociliary bundles in DAPT-treated explants” value in series [1] (20 μM DAPT) is given as “remained very sparse”. Besides, the “number of myosin7A-positive cells” value in series [1] was 38.5±8.64 /10000 μm2.

Consider gentamicin [GM], for which, in series [2], the “number of HC bodies after GM treatment” value is “dramatically decreased” and the “stereociliary bundles after GM treatment” value was “almost entirely lost”. Moreover, the “number of myosin7A-positive cells” value in series [1] is 25.4±5.5 /10000 μm2.
